How the values were obtained:
Pons [1] = test: Drug uptake in anesthetized cynomolgus monkey brain pons after 105 mins postinjection; format: ADME, organism-based, Macaca fascicularis; settings: in vivo, 1.75 h
Medulla [2] = test: Drug uptake in anesthetized cynomolgus monkey brain medulla after 175 mins postinjection; format: ADME, organism-based, Macaca fascicularis; settings: in vivo
Medulla [3] = test: Drug uptake in anesthetized cynomolgus monkey brain medulla after 85 mins postinjection; format: ADME, organism-based, Macaca fascicularis; settings: in vivo
Caudate [4] = test: Drug uptake in anesthetized cynomolgus monkey brain caudate after 155 mins postinjection; format: ADME, organism-based, Macaca fascicularis, Caudate nucleus; settings: in vivo
Caudate [5] = test: Drug uptake in anesthetized cynomolgus monkey brain caudate after 125 mins postinjection; format: ADME, organism-based, Macaca fascicularis, Caudate nucleus; settings: in vivo
Caudate [6] = test: Drug uptake in anesthetized cynomolgus monkey brain caudate after 6.5 mins postinjection; format: ADME, organism-based, Macaca fascicularis, Caudate nucleus; settings: in vivo
[7] = Ratio of drug uptake in putamen to cerebellum in anesthetized cynomolgus monkey after 0.5 mins postinjection; format: ADME, organism-based, Macaca fascicularis; settings: in vivo
[8] = Drug uptake in anesthetized cynomolgus monkey brain frontal lobe after 65 mins postinjection; format: ADME, organism-based, Macaca fascicularis; settings: in vivo
Caudate [9] = test: Drug uptake in anesthetized cynomolgus monkey brain caudate after 18.5 mins postinjection; format: ADME, organism-based, Macaca fascicularis, Caudate nucleus; settings: in vivo
Thalamus [10] = test: Drug uptake in anesthetized cynomolgus monkey brain thalamus after 105 mins postinjection; format: ADME, organism-based, Macaca fascicularis; set-up: unit not given here; settings: in vivo, 1.75 h
Medulla [11] = test: Drug uptake in anesthetized cynomolgus monkey brain medulla after 145 mins postinjection; format: ADME, organism-based, Macaca fascicularis; settings: in vivo
[12] = Ratio of drug uptake in midbrain to cerebellum in anesthetized cynomolgus monkey after 125 mins postinjection; format: ADME, organism-based, Macaca fascicularis; settings: in vivo
[13] = Drug uptake in anesthetized cynomolgus monkey brain frontal lobe after 105 mins postinjection; format: ADME, organism-based, Macaca fascicularis; settings: in vivo, 1.75 h
[14] = Drug uptake in anesthetized cynomolgus monkey brain cerebellum after 0.5 mins postinjection; format: ADME, organism-based, Macaca fascicularis; settings: in vivo
Putamen [15] = test: Drug uptake in anesthetized cynomolgus monkey brain putamen after 225 mins postinjection; format: ADME, organism-based, Macaca fascicularis; settings: in vivo, 3.75 h
[16] = Ratio of drug uptake in occipital lobe to cerebellum in anesthetized cynomolgus monkey after 4.5 mins postinjection; format: ADME, organism-based, Macaca fascicularis; settings: in vivo, 0.075 h
Putamen [17] = test: Drug uptake in anesthetized cynomolgus monkey brain putamen after 2.5 mins postinjection; format: ADME, organism-based, Macaca fascicularis; settings: in vivo
[18] = Drug uptake in anesthetized cynomolgus monkey brain occipital lobe after 15.5 mins postinjection; format: ADME, organism-based, Macaca fascicularis; settings: in vivo
[19] = Ratio of drug uptake in caudate to cerebellum in anesthetized cynomolgus monkey after 225 mins postinjection; format: ADME, organism-based, Macaca fascicularis; settings: in vivo, 3.75 h
[20] = Ratio of drug uptake in pons to cerebellum in anesthetized cynomolgus monkey after 225 mins postinjection; format: ADME, organism-based, Macaca fascicularis; settings: in vivo, 3.75 h
Thalamus [21] = test: Drug uptake in anesthetized cynomolgus monkey brain thalamus after 35 mins postinjection; format: ADME, organism-based, Macaca fascicularis; set-up: unit not given here; settings: in vivo
[22] = Ratio of drug uptake in caudate to cerebellum in anesthetized cynomolgus monkey after 135 mins postinjection; format: ADME, organism-based, Macaca fascicularis; settings: in vivo, 2.25 h
Midbrain [23] = test: Drug uptake in anesthetized cynomolgus monkey brain midbrain after 22.5 mins postinjection; format: ADME, organism-based, Macaca fascicularis; set-up: unit not given here; settings: in vivo, 0.375 h
Putamen [24] = test: Drug uptake in anesthetized cynomolgus monkey brain putamen after 65 mins postinjection; format: ADME, organism-based, Macaca fascicularis; set-up: unit not given here; settings: in vivo
[25] = Drug uptake in anesthetized cynomolgus monkey brain frontal lobe after 55 mins postinjection; format: ADME, organism-based, Macaca fascicularis; settings: in vivo
Caudate [26] = test: Drug uptake in anesthetized cynomolgus monkey brain caudate after 135 mins postinjection; format: ADME, organism-based, Macaca fascicularis, Caudate nucleus; settings: in vivo, 2.25 h
Midbrain [27] = test: Drug uptake in anesthetized cynomolgus monkey brain midbrain after 15.5 mins postinjection; format: ADME, organism-based, Macaca fascicularis; set-up: unit not given here; settings: in vivo
Medulla [28] = test: Drug uptake in anesthetized cynomolgus monkey brain medulla after 27.5 mins postinjection; format: ADME, organism-based, Macaca fascicularis; settings: in vivo
Pons [29] = test: Drug uptake in anesthetized cynomolgus monkey brain pons after 135 mins postinjection; format: ADME, organism-based, Macaca fascicularis; settings: in vivo, 2.25 h
Pons [30] = test: Drug uptake in anesthetized cynomolgus monkey brain pons after 3.5 mins postinjection; format: ADME, organism-based, Macaca fascicularis; settings: in vivo
Pons [31] = test: Drug uptake in anesthetized cynomolgus monkey brain pons after 6.5 mins postinjection; format: ADME, organism-based, Macaca fascicularis; settings: in vivo
Medulla [32] = test: Drug uptake in anesthetized cynomolgus monkey brain medulla after 6.5 mins postinjection; format: ADME, organism-based, Macaca fascicularis; settings: in vivo
Putamen [33] = test: Drug uptake in anesthetized cynomolgus monkey brain putamen after 175 mins postinjection; format: ADME, organism-based, Macaca fascicularis; settings: in vivo
Caudate [34] = test: Drug uptake in anesthetized cynomolgus monkey brain caudate after 105 mins postinjection; format: ADME, organism-based, Macaca fascicularis, Caudate nucleus; settings: in vivo, 1.75 h
Thalamus [35] = test: Drug uptake in anesthetized cynomolgus monkey brain thalamus after 18.5 mins postinjection; format: ADME, organism-based, Macaca fascicularis; set-up: unit not given here; settings: in vivo
[36] = Ratio of drug uptake in thalamus to cerebellum in anesthetized cynomolgus monkey after 155 mins postinjection; format: ADME, organism-based, Macaca fascicularis; settings: in vivo
[37] = Ratio of drug uptake in occipital lobe to cerebellum in anesthetized cynomolgus monkey after 115 mins postinjection; format: ADME, organism-based, Macaca fascicularis; settings: in vivo
Midbrain [38] = test: Drug uptake in anesthetized cynomolgus monkey brain midbrain after 95 mins postinjection; format: ADME, organism-based, Macaca fascicularis; set-up: unit not given here; settings: in vivo
Putamen [39] = test: Drug uptake in anesthetized cynomolgus monkey brain putamen after 1.5 mins postinjection; format: ADME, organism-based, Macaca fascicularis; settings: in vivo, 0.025 h
[40] = Ratio of drug uptake in frontal lobe to cerebellum in anesthetized cynomolgus monkey after 135 mins postinjection; format: ADME, organism-based, Macaca fascicularis; settings: in vivo, 2.25 h
[41] = Ratio of drug uptake in pons to cerebellum in anesthetized cynomolgus monkey after 18.5 mins postinjection; format: ADME, organism-based, Macaca fascicularis; settings: in vivo
[42] = Ratio of drug uptake in midbrain to cerebellum in anesthetized cynomolgus monkey after 22.5 mins postinjection; format: ADME, organism-based, Macaca fascicularis; settings: in vivo, 0.375 h
Caudate [43] = test: Drug uptake in anesthetized cynomolgus monkey brain caudate after 95 mins postinjection; format: ADME, organism-based, Macaca fascicularis, Caudate nucleus; settings: in vivo
[44] = Ratio of drug uptake in midbrain to cerebellum in anesthetized cynomolgus monkey after 27.5 mins postinjection; format: ADME, organism-based, Macaca fascicularis; settings: in vivo
[45] = Drug uptake in anesthetized cynomolgus monkey brain cerebellum after 175 mins postinjection; format: ADME, organism-based, Macaca fascicularis; settings: in vivo
Pons [46] = test: Drug uptake in anesthetized cynomolgus monkey brain pons after 75 mins postinjection; format: ADME, organism-based, Macaca fascicularis; settings: in vivo, 1.25 h
Caudate [47] = test: Drug uptake in anesthetized cynomolgus monkey brain caudate after 1.5 mins postinjection; format: ADME, organism-based, Macaca fascicularis, Caudate nucleus; settings: in vivo, 0.025 h
Thalamus [48] = test: Drug uptake in anesthetized cynomolgus monkey brain thalamus after 22.5 mins postinjection; format: ADME, organism-based, Macaca fascicularis; set-up: unit not given here; settings: in vivo, 0.375 h
Pons [49] = test: Drug uptake in anesthetized cynomolgus monkey brain pons after 225 mins postinjection; format: ADME, organism-based, Macaca fascicularis; settings: in vivo, 3.75 h
Putamen [50] = test: Drug uptake in anesthetized cynomolgus monkey brain putamen after 145 mins postinjection; format: ADME, organism-based, Macaca fascicularis; settings: in vivo
[51] = Ratio of drug uptake in putamen to cerebellum in anesthetized cynomolgus monkey after 235 mins postinjection; format: ADME, organism-based, Macaca fascicularis; settings: in vivo
[52] = Drug uptake in anesthetized cynomolgus monkey brain occipital lobe after 235 mins postinjection; format: ADME, organism-based, Macaca fascicularis; settings: in vivo
[53] = Ratio of drug uptake in thalamus to cerebellum in anesthetized cynomolgus monkey after 115 mins postinjection; format: ADME, organism-based, Macaca fascicularis; settings: in vivo
[54] = Drug uptake in anesthetized cynomolgus monkey brain frontal lobe after 22.5 mins postinjection; format: ADME, organism-based, Macaca fascicularis; settings: in vivo, 0.375 h
Midbrain [55] = test: Drug uptake in anesthetized cynomolgus monkey brain midbrain after 0.5 mins postinjection; format: ADME, organism-based, Macaca fascicularis; set-up: unit not given here; settings: in vivo
[56] = Drug uptake in anesthetized cynomolgus monkey brain cerebellum after 115 mins postinjection; format: ADME, organism-based, Macaca fascicularis; settings: in vivo
Midbrain [57] = test: Drug uptake in anesthetized cynomolgus monkey brain midbrain after 3.5 mins postinjection; format: ADME, organism-based, Macaca fascicularis; set-up: unit not given here; settings: in vivo
Pons [58] = test: Drug uptake in anesthetized cynomolgus monkey brain pons after 125 mins postinjection; format: ADME, organism-based, Macaca fascicularis; settings: in vivo
Pons [59] = test: Drug uptake in anesthetized cynomolgus monkey brain pons after 235 mins postinjection; format: ADME, organism-based, Macaca fascicularis; settings: in vivo
[60] = Drug uptake in anesthetized cynomolgus monkey brain occipital lobe after 4.5 mins postinjection; format: ADME, organism-based, Macaca fascicularis; settings: in vivo, 0.075 h

## O=C(OCCC[18F])C1C2CCC(CC1c1cccc(/C=C\Br)c1)N2 (stereo not given)
Pons [1]
  Drug uptake: 4.38
Medulla [2]
  Drug uptake: 4.26
Medulla [3]
  Drug uptake: 5.41
Caudate [4]
  Drug uptake: 4.18
Caudate [5]
  Drug uptake: 4.63
Caudate [6]
  Drug uptake: 3.14
[7]
  Ratio: 0.8
[8]
  Drug uptake: 3.69
Caudate [9]
  Drug uptake: 4.53
Thalamus [10]
  Drug uptake: 5.06
Medulla [11]
  Drug uptake: 4.91
[12]
  Ratio: 1.8
[13]
  Drug uptake: 3.19
[14]
  Drug uptake: 0.01
Putamen [15]
  Drug uptake: 3.51
[16]
  Ratio: 0.7
Putamen [17]
  Drug uptake: 1.34
[18]
  Drug uptake: 4.29
[19]
  Ratio: 1.7
[20]
  Ratio: 1.6
Thalamus [21]
  Drug uptake: 5.26
[22]
  Ratio: 1.5
Midbrain [23]
  Drug uptake: 5.88
Putamen [24]
  Drug uptake: 5.78
[25]
  Drug uptake: 3.67
Caudate [26]
  Drug uptake: 4.43
Midbrain [27]
  Drug uptake: 5.7
Medulla [28]
  Drug uptake: 6.12
Pons [29]
  Drug uptake: 4.03
Pons [30]
  Drug uptake: 1.87
Pons [31]
  Drug uptake: 3.6
Medulla [32]
  Drug uptake: 5.26
Putamen [33]
  Drug uptake: 4.1
Caudate [34]
  Drug uptake: 4.9
Thalamus [35]
  Drug uptake: 4.77
[36]
  Ratio: 1.6
[37]
  Ratio: 1.1
Midbrain [38]
  Drug uptake: 5.79
Putamen [39]
  Drug uptake: 0.3
[40]
  Ratio: 1
[41]
  Ratio: 0.7
[42]
  Ratio: 1
Caudate [43]
  Drug uptake: 5.03
[44]
  Ratio: 1.1
[45]
  Drug uptake: 2.45
Pons [46]
  Drug uptake: 4.67
Caudate [47]
  Drug uptake: 0.31
Thalamus [48]
  Drug uptake: 5.02
Pons [49]
  Drug uptake: 3.21
Putamen [50]
  Drug uptake: 4.58
[51]
  Ratio: 1.7
[52]
  Drug uptake: 2.53
[53]
  Ratio: 1.5
[54]
  Drug uptake: 3.74
Midbrain [55]
  Drug uptake: 0.01
[56]
  Drug uptake: 3.29
Midbrain [57]
  Drug uptake: 2.59
Pons [58]
  Drug uptake: 4.3
Pons [59]
  Drug uptake: 3.26
[60]
  Drug uptake: 2.44

## O=C(OCC[18F])C1C2CCC(CC1c1cccc(/C=C\I)c1)N2 (stereo not given)
Pons [1]
  Drug uptake: 3.01
Medulla [2]
  Drug uptake: 2.78
Medulla [3]
  Drug uptake: 3.75
Caudate [4]
  Drug uptake: 2.62
Caudate [5]
  Drug uptake: 3
Caudate [6]
  Drug uptake: 2.02
[8]
  Drug uptake: 2.78
Caudate [9]
  Drug uptake: 3.07
Thalamus [10]
  Drug uptake: 3.74
Medulla [11]
  Drug uptake: 3.04
[12]
  Ratio: 2
[14]
  Drug uptake: 0
Putamen [15]
  Drug uptake: 2.44
[16]
  Ratio: 0.6
Putamen [17]
  Drug uptake: 0.44
[20]
  Ratio: 1.6
Thalamus [21]
  Drug uptake: 4.2
Midbrain [23]
  Drug uptake: 4.56
Putamen [24]
  Drug uptake: 4.36
Caudate [26]
  Drug uptake: 2.87
Midbrain [27]
  Drug uptake: 4.07
Medulla [28]
  Drug uptake: 3.97
Pons [29]
  Drug uptake: 2.65
Pons [30]
  Drug uptake: 0.77
Pons [31]
  Drug uptake: 2.02
Medulla [32]
  Drug uptake: 2.75
Putamen [33]
  Drug uptake: 2.93
Caudate [34]
  Drug uptake: 3.33
Thalamus [35]
  Drug uptake: 3.7
[36]
  Ratio: 1.8
[37]
  Ratio: 0.9
Midbrain [38]
  Drug uptake: 4.55
Putamen [39]
  Drug uptake: 0.1
[40]
  Ratio: 1.1
[41]
  Ratio: 0.7
[42]
  Ratio: 1.1
Caudate [43]
  Drug uptake: 3.39
[44]
  Ratio: 1.1
[45]
  Drug uptake: 1.57
Pons [46]
  Drug uptake: 3.21
Caudate [47]
  Drug uptake: 0.08
Thalamus [48]
  Drug uptake: 3.88
Pons [49]
  Drug uptake: 2.03
Putamen [50]
  Drug uptake: 3.27
[51]
  Ratio: 1.8
[53]
  Ratio: 1.7
Midbrain [55]
  Drug uptake: 0
Midbrain [57]
  Drug uptake: 1.19
Pons [58]
  Drug uptake: 2.76
Pons [59]
  Drug uptake: 1.97

Reference: ChEMBL document CHEMBL1151757, “Synthesis, radiosynthesis, and biological evaluation of fluorine-18-labeled 2beta-carbo(fluoroalkoxy)-3beta-(3'-((Z)-2-haloethenyl)phenyl)nortropanes: candidate radioligands for in vivo imaging of the serotonin transporter with positron emission tomography” (J Med Chem, 2008)
